Results from ChEMBL document CHEMBL4043168, “The design and SAR of a novel series of 2-aminopyridine based LRRK2 inhibitors” (Bioorg Med Chem Lett, 2017).

Tests used:
[1] = biological target: Dual specificity mitogen-activated protein kinase kinase 7 (Homo sapiens) (UniProt O14733); experiment: Inhibition of MAP2K7 conserved Lys2 (DVKPSNILLDER) in human PBMC at 0.1 uM
[2] = biological target: T1, Mitogen-activated protein kinase kinase kinase 5 (Homo sapiens) (UniProt Q99683); experiment: Inhibition of MAP3K5 conserved Lys2 (DIKGDNVLINTYSGVLK) in human PBMC at 1 uM
T1 sequence (whole entry): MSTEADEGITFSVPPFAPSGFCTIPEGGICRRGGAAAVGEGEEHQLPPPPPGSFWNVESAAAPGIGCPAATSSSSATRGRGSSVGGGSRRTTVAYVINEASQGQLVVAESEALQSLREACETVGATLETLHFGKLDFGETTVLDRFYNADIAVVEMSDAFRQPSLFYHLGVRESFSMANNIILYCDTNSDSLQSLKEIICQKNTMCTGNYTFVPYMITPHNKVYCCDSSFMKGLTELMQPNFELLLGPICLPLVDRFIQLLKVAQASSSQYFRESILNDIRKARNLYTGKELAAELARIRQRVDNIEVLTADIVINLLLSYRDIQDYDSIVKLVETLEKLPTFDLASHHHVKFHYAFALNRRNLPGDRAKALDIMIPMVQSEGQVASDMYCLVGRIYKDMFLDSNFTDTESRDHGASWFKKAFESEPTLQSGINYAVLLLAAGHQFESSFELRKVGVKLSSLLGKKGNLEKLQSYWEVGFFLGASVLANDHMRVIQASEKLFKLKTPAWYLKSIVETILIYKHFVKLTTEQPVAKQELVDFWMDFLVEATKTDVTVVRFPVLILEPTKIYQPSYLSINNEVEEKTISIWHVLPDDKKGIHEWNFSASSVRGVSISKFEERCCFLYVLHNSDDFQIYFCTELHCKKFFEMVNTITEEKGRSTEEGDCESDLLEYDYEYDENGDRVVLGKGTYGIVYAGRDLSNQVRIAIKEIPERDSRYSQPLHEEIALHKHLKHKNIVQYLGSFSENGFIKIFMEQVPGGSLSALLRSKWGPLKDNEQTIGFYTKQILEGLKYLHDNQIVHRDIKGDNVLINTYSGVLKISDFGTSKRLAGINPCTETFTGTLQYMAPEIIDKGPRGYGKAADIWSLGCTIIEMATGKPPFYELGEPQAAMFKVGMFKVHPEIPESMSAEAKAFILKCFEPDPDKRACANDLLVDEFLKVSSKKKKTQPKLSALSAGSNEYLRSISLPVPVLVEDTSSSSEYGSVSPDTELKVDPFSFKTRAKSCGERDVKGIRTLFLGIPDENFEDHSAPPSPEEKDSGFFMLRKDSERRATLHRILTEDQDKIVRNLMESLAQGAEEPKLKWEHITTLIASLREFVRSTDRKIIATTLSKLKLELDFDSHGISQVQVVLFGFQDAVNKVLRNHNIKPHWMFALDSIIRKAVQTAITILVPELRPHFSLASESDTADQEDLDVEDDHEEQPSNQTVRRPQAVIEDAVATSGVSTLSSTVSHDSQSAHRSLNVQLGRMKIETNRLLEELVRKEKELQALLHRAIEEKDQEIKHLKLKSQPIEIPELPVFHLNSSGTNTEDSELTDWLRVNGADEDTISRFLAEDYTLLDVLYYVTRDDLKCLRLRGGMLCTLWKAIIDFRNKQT

[3] = biological target: Tyrosine-protein kinase BTK (Homo sapiens) (UniProt Q06187); experiment: Inhibition of BTK labeling at activation Loop (YVLDDEYTSSVGSKFPVR) in human PBMC at 0.1 uM
[4] = biological target: Inhibitor of nuclear factor kappa-B kinase subunit alpha (Homo sapiens) (UniProt O15111); experiment: Inhibition of IKKa conserved Lys2 (DLKPENIVLQDVGGK) in human PBMC at 1 uM
[5] = biological target: T2, Serine/threonine-protein kinase LATS1 (Homo sapiens) (UniProt O95835); experiment: Inhibition of LATS1 conserved Lys1 (ALYATKTLR) in human PBMC at 0.1 uM
T2 sequence (whole entry): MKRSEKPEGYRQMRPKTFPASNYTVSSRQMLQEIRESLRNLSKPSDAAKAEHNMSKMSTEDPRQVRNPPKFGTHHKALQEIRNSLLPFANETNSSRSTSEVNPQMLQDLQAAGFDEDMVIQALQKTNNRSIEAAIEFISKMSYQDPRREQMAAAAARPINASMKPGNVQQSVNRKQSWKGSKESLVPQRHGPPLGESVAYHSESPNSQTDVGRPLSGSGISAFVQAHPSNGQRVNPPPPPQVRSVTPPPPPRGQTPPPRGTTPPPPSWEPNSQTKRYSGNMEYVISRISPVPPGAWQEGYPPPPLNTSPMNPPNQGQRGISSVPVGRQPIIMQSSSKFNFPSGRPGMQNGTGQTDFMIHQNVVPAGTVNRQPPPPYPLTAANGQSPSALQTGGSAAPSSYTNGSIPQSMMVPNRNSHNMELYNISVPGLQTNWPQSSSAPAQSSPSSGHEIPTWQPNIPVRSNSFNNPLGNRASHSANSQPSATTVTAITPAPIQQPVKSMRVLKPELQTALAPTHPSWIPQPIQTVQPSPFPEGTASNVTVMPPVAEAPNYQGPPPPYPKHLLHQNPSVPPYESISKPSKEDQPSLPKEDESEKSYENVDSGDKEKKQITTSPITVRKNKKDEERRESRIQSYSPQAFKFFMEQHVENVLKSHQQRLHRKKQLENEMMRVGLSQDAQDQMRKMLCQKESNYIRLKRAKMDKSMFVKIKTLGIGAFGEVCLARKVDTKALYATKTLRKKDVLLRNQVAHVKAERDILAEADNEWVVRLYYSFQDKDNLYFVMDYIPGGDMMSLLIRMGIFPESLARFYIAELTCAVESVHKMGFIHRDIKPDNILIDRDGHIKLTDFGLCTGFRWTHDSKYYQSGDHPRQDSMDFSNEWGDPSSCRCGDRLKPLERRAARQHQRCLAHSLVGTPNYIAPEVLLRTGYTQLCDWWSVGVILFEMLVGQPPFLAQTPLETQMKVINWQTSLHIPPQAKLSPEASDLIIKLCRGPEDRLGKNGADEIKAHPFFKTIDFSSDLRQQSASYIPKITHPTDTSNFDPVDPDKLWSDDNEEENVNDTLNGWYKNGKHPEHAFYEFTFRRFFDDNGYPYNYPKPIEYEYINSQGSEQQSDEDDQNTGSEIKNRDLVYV

[6] = biological target: Serine/threonine-protein kinase B-raf (Homo sapiens) (UniProt P15056); experiment: Inhibition of BRAF labeling at conserved Lys2 (DLKSNNIFLHEDLTVK) in human PBMC at 0.1 uM
[7] = biological target: MAP kinase-activated protein kinase 3 (Homo sapiens) (UniProt Q16644); experiment: Inhibition of MAPKAPK3 ATP binding site (QVLGLGVNGKVLECFHR) in human PBMC at 1 uM
[8] = biological target: Tyrosine-protein kinase BTK (Homo sapiens) (UniProt Q06187); experiment: Inhibition of BTK labeling at activation Loop (YVLDDEYTSSVGSKFPVR) in human PBMC at 1 uM

Chain of Tyrosine-protein kinase BTK (Homo sapiens) (Q06187 whole entry): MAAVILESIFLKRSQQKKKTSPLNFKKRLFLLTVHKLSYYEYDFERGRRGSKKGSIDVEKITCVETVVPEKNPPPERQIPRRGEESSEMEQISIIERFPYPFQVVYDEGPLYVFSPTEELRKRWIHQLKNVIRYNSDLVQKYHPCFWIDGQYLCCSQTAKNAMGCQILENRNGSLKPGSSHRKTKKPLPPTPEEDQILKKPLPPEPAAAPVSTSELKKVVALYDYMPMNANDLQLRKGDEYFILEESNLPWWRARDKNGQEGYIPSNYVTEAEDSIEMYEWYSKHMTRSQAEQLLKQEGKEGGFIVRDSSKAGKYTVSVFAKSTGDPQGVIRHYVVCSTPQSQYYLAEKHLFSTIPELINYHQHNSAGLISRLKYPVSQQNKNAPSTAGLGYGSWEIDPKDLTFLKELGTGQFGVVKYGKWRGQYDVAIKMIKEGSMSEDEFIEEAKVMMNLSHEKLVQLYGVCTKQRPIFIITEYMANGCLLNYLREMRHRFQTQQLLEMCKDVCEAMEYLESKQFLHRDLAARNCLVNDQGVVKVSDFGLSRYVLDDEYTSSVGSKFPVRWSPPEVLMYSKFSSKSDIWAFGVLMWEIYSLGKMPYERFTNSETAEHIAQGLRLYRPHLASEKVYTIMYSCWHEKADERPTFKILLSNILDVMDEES
Chain of Inhibitor of nuclear factor kappa-B kinase subunit alpha (Homo sapiens) (O15111 whole entry): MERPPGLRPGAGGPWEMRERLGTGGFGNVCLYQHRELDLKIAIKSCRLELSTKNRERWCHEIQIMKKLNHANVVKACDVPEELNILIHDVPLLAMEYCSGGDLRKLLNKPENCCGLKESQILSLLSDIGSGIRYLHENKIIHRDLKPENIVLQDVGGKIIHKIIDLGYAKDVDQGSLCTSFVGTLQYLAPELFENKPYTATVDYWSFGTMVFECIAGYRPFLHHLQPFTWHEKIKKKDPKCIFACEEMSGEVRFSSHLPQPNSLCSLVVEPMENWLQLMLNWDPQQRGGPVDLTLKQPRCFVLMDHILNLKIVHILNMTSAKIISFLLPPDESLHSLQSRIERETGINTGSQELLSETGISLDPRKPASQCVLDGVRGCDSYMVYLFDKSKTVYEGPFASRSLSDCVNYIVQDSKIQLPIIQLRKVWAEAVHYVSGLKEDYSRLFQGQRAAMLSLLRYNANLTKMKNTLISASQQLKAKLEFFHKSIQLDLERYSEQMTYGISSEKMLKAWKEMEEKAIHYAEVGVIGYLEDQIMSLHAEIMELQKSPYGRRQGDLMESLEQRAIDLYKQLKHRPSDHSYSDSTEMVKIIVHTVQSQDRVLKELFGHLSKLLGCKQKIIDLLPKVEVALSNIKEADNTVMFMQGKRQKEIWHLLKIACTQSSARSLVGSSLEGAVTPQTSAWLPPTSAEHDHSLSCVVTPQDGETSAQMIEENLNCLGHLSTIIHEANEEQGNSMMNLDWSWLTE
Chain of MAP kinase-activated protein kinase 3 (Homo sapiens) (Q16644 whole entry, looked up): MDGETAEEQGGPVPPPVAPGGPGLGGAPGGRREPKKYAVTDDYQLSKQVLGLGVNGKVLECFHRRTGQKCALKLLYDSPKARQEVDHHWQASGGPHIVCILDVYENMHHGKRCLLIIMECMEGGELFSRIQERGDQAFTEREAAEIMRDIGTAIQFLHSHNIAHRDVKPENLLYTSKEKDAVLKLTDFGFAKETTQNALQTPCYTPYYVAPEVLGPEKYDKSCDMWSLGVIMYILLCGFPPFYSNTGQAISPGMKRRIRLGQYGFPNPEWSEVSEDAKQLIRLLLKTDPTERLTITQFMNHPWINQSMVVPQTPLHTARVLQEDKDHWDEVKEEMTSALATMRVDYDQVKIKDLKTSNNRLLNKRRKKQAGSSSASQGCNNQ
Chain of Serine/threonine-protein kinase B-raf (Homo sapiens) (P15056 whole entry): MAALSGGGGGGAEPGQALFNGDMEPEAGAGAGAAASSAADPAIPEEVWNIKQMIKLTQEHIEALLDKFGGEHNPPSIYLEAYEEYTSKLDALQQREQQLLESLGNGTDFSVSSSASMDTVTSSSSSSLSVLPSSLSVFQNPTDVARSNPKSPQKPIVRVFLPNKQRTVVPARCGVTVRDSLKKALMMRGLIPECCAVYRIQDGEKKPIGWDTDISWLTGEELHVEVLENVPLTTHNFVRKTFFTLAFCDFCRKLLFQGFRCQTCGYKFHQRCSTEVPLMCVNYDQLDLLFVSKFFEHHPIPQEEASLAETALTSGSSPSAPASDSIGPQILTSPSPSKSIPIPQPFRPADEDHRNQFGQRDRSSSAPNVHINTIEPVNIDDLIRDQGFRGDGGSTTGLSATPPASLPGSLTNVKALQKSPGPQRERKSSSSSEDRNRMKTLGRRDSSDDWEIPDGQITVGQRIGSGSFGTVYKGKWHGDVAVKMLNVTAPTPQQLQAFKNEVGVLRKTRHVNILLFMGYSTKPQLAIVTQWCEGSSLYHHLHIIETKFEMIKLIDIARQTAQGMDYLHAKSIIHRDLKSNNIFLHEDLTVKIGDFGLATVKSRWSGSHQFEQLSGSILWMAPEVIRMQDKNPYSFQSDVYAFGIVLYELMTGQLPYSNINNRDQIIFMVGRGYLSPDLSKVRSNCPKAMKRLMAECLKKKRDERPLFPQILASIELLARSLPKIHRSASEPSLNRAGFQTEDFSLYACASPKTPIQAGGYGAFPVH
Chain of Dual specificity mitogen-activated protein kinase kinase 7 (Homo sapiens) (O14733 whole entry): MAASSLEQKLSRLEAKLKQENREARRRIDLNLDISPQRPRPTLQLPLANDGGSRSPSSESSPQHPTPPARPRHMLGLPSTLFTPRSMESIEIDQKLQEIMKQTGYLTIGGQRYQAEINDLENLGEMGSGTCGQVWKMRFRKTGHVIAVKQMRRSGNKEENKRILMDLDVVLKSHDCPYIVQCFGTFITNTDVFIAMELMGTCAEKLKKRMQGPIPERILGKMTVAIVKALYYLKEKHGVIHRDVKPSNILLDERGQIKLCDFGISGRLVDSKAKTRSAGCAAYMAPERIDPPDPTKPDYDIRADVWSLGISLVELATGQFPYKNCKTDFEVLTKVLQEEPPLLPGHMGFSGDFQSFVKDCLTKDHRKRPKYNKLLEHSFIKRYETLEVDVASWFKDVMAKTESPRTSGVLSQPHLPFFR

Structure (SMILES): CC(C)n1cc(-c2cc(-c3ccc(CN4CCOCC4)cc3)cnc2N)nn1
- inhibition [1]: 31.6%
- inhibition [2]: 25.3%
- inhibition [3]: 14.2%
- inhibition [4]: -1.2%
- inhibition [5]: 23.1%
- inhibition [6]: 12.5%
- inhibition [7]: 2.5%
- inhibition [8]: 17.4%
